Assay results: ChEMBL document CHEMBL3137667, “[Drug-induced liver injury; fourteenth updated edition of the bibliographic database of liver injuries and related drugs]” (Gastroenterol Clin Biol, 2004)

Columns and labels:
[1] = Highest frequency of moderate liver toxicity observed during clinical trials, expressed as a percentage. [column '% BIOL' in source]; details: human
[2] = Highest frequency of acute liver toxicity observed during clinical trials, expressed as a percentage. [column '% AIGUE' in source]; details: human
[3] = Times to onset, minimal and maximal, observed in the indexed observations. [column 'DELAI' in source]; details: human
[4] = Proposed mechanism(s) of liver damage. [column 'MEC' in source]; details: human
[5] = human, serum
[6] = human, serum; remark: listed apart in the source
[7] = human
[8] = human; remark: listed apart in the source
[9] = human; remark: listed apart in the source
[10] = human, serum, 4383 h
[11] = human; remark: listed apart in the source
[12] = human; remark: listed apart in the source
[13] = human; remark: listed apart in the source
[14] = human; remark: listed apart in the source
[15] = human; remark: listed apart in the source
[16] = human; remark: listed apart in the source
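Throughout, for Hepatotoxicity (association with vascular disease): count of indexed literature references reporting vascular liver injury in humans, e.g. peliosis hepatitis, hepatic veno-occlusive disease or Budd-Chiari syndrome.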
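Throughout, for Hepatotoxicity (benign tumour): value is a count of indexed literature references citing a benign tumour confirmed by histopathology.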
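Throughout, for Hepatotoxicity (choleostasis): human cholestatic liver injury, shown by histopathology or by peak ALT or AST elevation over alkaline phosphatase ratio below 2, value counts indexed literature reports.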
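Throughout, for Hepatotoxicity (chronic liver disease): chronic liver injury confirmed by histopathology or persistently raised serum aminotransferase activity beyond 6 months, value given as the count of indexed literature references.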
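Throughout, for Hepatotoxicity (cirrhosis): value is a count of indexed literature references reporting cirrhosis confirmed by histopathology.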
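Throughout, for Hepatotoxicity (cytolytic): human cytolytic liver injury, shown by histopathology or by a ratio above 5 of peak ALT or AST elevation to alkaline phosphatase elevation, value counts indexed references.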
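Throughout, for Hepatotoxicity (granulomatous hepatitis): value is a count of indexed literature references reporting granulomatous liver disease confirmed by histopathology.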
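Throughout, for Hepatotoxicity (malignant tumour): malignant tumour confirmed by histopathology, value gives the count of indexed literature references reporting it.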
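Throughout, for Hepatotoxicity (severe hepatitis): human clinical data: severe hepatitis, meaning potentially life-threatening liver failure or clinically observed cases, the value counts how many indexed literature references report it.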
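Throughout, for Hepatotoxicity (steatosis): steatosis confirmed by histopathology, value is the count of indexed references.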

Compound | Hepatotoxicity (moderate) [1] [%] | Hepatotoxicity (acute) [2] [%] | Hepatotoxicity (time to onset) [3] | Hepatotoxicity (mechanism) [4] | Hepatotoxicity (moderate) [5] | Hepatotoxicity (acute) [6] | Hepatotoxicity (cytolytic) [7] | Hepatotoxicity (choleostasis) [8] | Hepatotoxicity (severe hepatitis) [9] | Hepatotoxicity (chronic liver disease) [10] | Hepatotoxicity (cirrhosis) [11] | Hepatotoxicity (granulomatous hepatitis) [12] | Hepatotoxicity (association with vascular disease) [13] | Hepatotoxicity (steatosis) [14] | Hepatotoxicity (malignant tumour) [15] | Hepatotoxicity (benign tumour) [16] | also measured
Cc1ccnc2c1NC(=O)c1cccnc1N2C1CC1 [NEVIRAPINE] | 47.1 | 37.5 | 8 days - 3 years | Allergic | 18 | 49 | 29 | 2 | 14 | 0 | 0 | 0 | 0 | 0 | 0 | 0 | 
CC(=O)c1ccc(S(=O)(=O)NC(=O)NC2CCCCC2)cc1 [ACETOHEXAMIDE] | 0 | 0 | 3 weeks - 17 months | Dose-dependant | 0 | 6 | 2 | 0 | 0 | 0 | 1 | 0 | 0 | 0 | 0 | 0 | 
CNCCCC12CCC(c3ccccc31)c1ccccc12 [MAPROTILINE] |  |  | 2 days - 4 years |  | 5 | 8 |  |  |  | 0 | 0 |  | 0 | 0 | 0 | 0 | Hepatotoxicity (moderate) ([1]; Liver): 25%; Hepatotoxicity (acute) ([2]; Liver): 0%; Hepatotoxicity (mechanism) ([4]; Liver): Dose-dependant; Hepatotoxicity (cytolytic) ([7]; Liver): 7; Hepatotoxicity (choleostasis) ([8]; Liver): 4; Hepatotoxicity (severe hepatitis) ([9]; Liver): 0; Hepatotoxicity (granulomatous hepatitis) ([12]; Liver): 0
CCC(COC(=O)c1cc(OC)c(OC)c(OC)c1)(c1ccccc1)N(C)C (stereo not drawn) [TRIMEBUTINE] | 0 | 0 | 2 weeks | Allergic | 0 | 1 | 1 | 0 | 0 | 0 | 0 | 0 | 0 | 0 | 0 | 0 | 
CC(c1cc2ccccc2s1)N(O)C(N)=O (stereo not drawn) [ZILEUTON] | 16.7 | 0 | 24 days | Dose-dependant | 8 | 2 | 1 | 0 | 0 | 0 | 0 | 0 | 0 | 0 | 0 | 0 | 
Cc1ccc(S(=O)(=O)NC(=O)NN2CC3CCCC3C2)cc1 (stereo not drawn) [GLICLAZIDE] | 0 | 0 | 4 weeks - 5 weeks | Allergic | 1 | 3 | 2 | 1 | 0 | 0 | 0 | 0 | 0 | 0 | 0 | 0 | 
O=C1CC[C@@]2(O)[C@H]3Cc4ccc(O)c5c4[C@@]2(CCN3CC2CC2)[C@H]1O5 [NALTREXONE] |  |  | 1 month - 2 months | Dose-dependant | 9 | 3 | 3 | 0 |  | 0 | 0 | 0 | 0 | 0 | 0 | 0 | Hepatotoxicity (moderate) ([1]; Liver): 20%; Hepatotoxicity (acute) ([2]; Liver): 0%; Hepatotoxicity (severe hepatitis) ([9]; Liver): 0
CC12CCC(CC1=O)C2(C)C (stereo not drawn) [CAMPHOR] | 0 | 0 | 3 days | Dose-dependant | 0 | 1 | 1 | 0 | 0 | 0 | 0 | 0 | 0 | 0 | 0 | 0 | 
